We go through 14 compounds from PMC9866541, “Flavonoid Derivatives as New Potent Inhibitors of Cysteine Proteases: An Important Step toward the Design of New Compounds for the Treatment of Leishmaniasis” (Microorganisms, 2023).

Molecules are shown by their SMILES.

The subject of one data set is NIH/3T3 fibroblasts. As to the kind of experiment: Cytotoxicity on mammalian cells (sulphorhodamine B). It is filed as cell-based. To be noted: for NIH/3T3 Cells GL50: 48 h, concentration that inhibited cell growth by 50%. The protocol: The cytotoxic effect of the test samples was evaluated on NIH/3T3 fibroblasts, obtained from the Rio de Janeiro Cell Bank (Brazil). Cells were seeded in 96-well plates ([…]). After 24 h of fixation, cells were incubated for 48 h with test samples at 0.25–250 µg/mL, in triplicate. […] Doxorubicin (0.025–25 µg/mL was used as a positive control. Cells were fixed by adding 20% trichloroacetic acid and were subsequently stained with sulphorhodamine B (0.1%) diluted in acetic acid after 48 h of exposure. Absorbance values were read on the PT-READER microplate instrument (Thermoplate®), and growth percentages were calculated according to procedures in the literature. Cytotoxicity activity was expressed as the concentration of drug that inhibited cell growth by 50% (GL50), and growth was determined by nonlinear regression using Origin 6.0 software (OriginLab). The statistical significance was analysed using an unpaired Student’s t-test or a one-way analysis of variance. A p-value < 0.05 was considered statistically relevant. In addition, the SI was calculated using the ratio between cytotoxicity in NHI-3T3 cells (GL50) and activity in the parasite forms (IC50).

In data set [1] the target is T1, rCPB2.8 (Leishmania mexicana, UniProt P36400).
T1 construct: recombinant enzymes (r) lacking the C-terminal region
As to the kind of experiment: Determination of IC50 on rCPB2.8 (Z-FR-AMC). It is filed as biochemical. The protocol:
Cysteine proteases rCPB2.8, rCPB3, and rH84Y were assayed in 100 mM sodium acetate buffer containing 5 mM EDTA, 100 mM NaCl, 0.01% Triton X-100, and 20% glycerol, at pH 5.5. The enzymes were pre-incubated in the presence of 5 mM DTT for 5 min at 37 °C in a 1 mL final volume with constant stirring. Enzyme activities were monitored using fluorogenic probe Z-FR-AMC (9.25 µM final concentration), and the fluorescence was monitored by spectrofluorometry using fluorometer F2700 (Hitachi, Tokyo, Japan) set to λEx = 360 nm and λEm = 480 nm. The IC50 evaluation was performed using a progressive increase in the concentration of the compounds; the IC50 values were calculated using nonlinear regression, and the data were analysed by Grafit 5.0.13 software using Equation (1). (1) y=100%/1+(x/IC50)^S.

For data set [2], the system named is Promastigote forms of L. amazonensis. As to the kind of experiment: Antipromastigote assay (MTT). The data set is classed as cell-based, Leishmania amazonensis. The settings on record: for SI (selectivity index): GL50 in NIH/3T3 cells / IC50 in extracellular promastigotes; for IC50: Leishmania amazonensis, L. amazonensis promastigotes, 72 h, 26 °C, MTT, highest concentration tested 10 µg/mL, read-out: Promastigote IC50. How it is done:
A standard strain of Leishmania (Leishmania amazonensis) (IFLA/BR/1967/PH8) was used for the evaluation of in vitro antileishmanial activity. The promastigote forms were grown in Schneider’s insect medium (Sigma-Aldrich®, SP/Brazil) supplemented with 20% foetal bovine serum (Sigma-Aldrich®, SP/Brazil), 10,000 U/mL penicillin, and 10 mg/mL streptomycin (Sigma-Aldrich®, SP/Brazil).
Promastigote forms of L. amazonensis in the log growth phase (10^e6 parasites/mL) were added to 96-well plates and incubated in sextuplicate with the test samples (0.25–10.0 µg/mL). The microplates were incubated at 26 °C for 72 h. Cell viability was assessed by adding 5 mg/mL of MTT ([3-(4,5-dimethylthiazol-2-yl)-2,5-diphenyltetrazolium bromide] (Sigma-Aldrich® SP/Brazil). Results were expressed as the half-maximal inhibitory concentration (IC50) calculated by a nonlinear dose–response regression curve using the statistical program GraphPad PRISM 5.0. Pentamidine (Sigma-Aldrich ® SP/Brazil; 0.25–10 µg/mL) was used as a positive control, and pure Schneider culture medium was used as a negative control.

Data set [3] deals with T1, rCPB2.8. As to the kind of experiment: Enzyme kinetics and mechanism of inhibition of rCPB2.8. As to mechanism: key: NCPC: non-competitive inhibition with positive cooperativity; SLNC: simple linear non-competitive inhibition. It is filed as biochemical. How it is done: (§1) Studies of cysteine proteases rCPB2.8, rCPB3, and rH84Y inhibition kinetics were performed in different concentrations of Z-FR-AMC in the presence and absence of compounds using 100 mM sodium acetate buffer containing 5 mM EDTA, 100 mM NaCl, 0.01% Triton X-100, and 20% glycerol, at pH 5.5. Aliquots of the enzymes were pre-incubated with 5 mM DTT for 5 min at 37 °C. For every kinetic measurement, the compounds were pre-incubated with each enzyme for 10 min before adding the substrate. All kinetic assays were performed in duplicate. Inhibition constants were determined using different equations, depending on the inhibition mechanism. The assumed KM values of rCPB2.8, rCPB3, and rH84Y for Z-FR-AMC were 3.23 µM, 2.99 µM, and 2.80 µM, respectively. The data of the activity rate and substrate concentration generated rectangular hyperbolic profiles that were linearised using the Lineweaver–Burk double-reciprocal plot. The replot profiles of the slope vs. inhibitor and intercept vs. inhibitor provided Ki and αKi parameters, respectively. If the replots present a parabolic profile, the system involves the participation of a second molecule of the compound, which can bind the enzyme complexed to the first compound (EI), forming IEI, and bind to the ESI complex, forming IESI. Linearisation is required, generating the 1/Kslope vs. inhibitor and 1/Kintercept vs. inhibitor replots, according to Equations (2) and (3). (2) 1/Kslope=1/Ki+[I]/βKi2, (3) 1/Kintercept=1/αKi+[I]/αγKi2, where Ki is the inhibitory constant, [I] is the concentration of inhibitor, α is the factor of formation of the ESI complex (enzyme–substrate–inhibitor complex), β is the factor of formation of the IEI complex (inhibitor–enzyme–inhibitor complex), and γ is the factor of formation of the IESI complex (inhibitor–enzyme–substrate–inhibitor complex) according to the general mechanism (Figure 8). Furthermore, β and γ measure the cooperativity between the binding of the first and second inhibitor molecules to form IEI and IESI, respectively.

For another data set, the target named is rCPB3 (Leishmania mexicana, UniProt P36400, D186N/D189S/N185D, form not given). As to the kind of experiment: Enzyme kinetics and mechanism of inhibition of rCPB3. As to mechanism: key: NCPC: non-competitive inhibition with positive cooperativity; SLNC: simple linear non-competitive inhibition. The data set is classed as biochemical. The protocol: as §1
A further data set deals with rH84Y (Leishmania mexicana, UniProt P36400, D186N/D189S/H209Y/N185D, form not given). As to the kind of experiment: Enzyme kinetics and mechanism of inhibition of rH84Y. As to mechanism: key: NCPC: non-competitive inhibition with positive cooperativity; SLNC: simple linear non-competitive inhibition. The data set is classed as biochemical. How it is done: as §1
[4] abbreviates: factor of formation of the ESI complex.
Setting [5] is: factor of formation of the IEI complex.
The mark [6] stands for this setting: factor of formation of the IESI complex.

T1 sequence (P36400 126-343): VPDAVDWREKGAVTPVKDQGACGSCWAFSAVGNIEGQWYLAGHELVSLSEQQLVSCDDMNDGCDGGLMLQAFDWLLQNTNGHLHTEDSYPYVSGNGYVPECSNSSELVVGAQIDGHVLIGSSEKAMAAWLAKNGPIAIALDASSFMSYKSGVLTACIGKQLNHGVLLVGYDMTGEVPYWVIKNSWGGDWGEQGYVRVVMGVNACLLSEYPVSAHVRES
Sequence of rH84Y (P36400 126-343 D186N/D189S/H209Y/N185D): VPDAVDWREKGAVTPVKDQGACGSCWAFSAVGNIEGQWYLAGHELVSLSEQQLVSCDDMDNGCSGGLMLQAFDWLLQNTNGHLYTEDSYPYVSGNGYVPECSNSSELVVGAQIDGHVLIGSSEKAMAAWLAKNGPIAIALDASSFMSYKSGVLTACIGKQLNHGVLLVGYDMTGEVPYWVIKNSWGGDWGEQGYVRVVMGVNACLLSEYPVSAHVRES
Sequence of rCPB3 (P36400 126-343 D186N/D189S/N185D): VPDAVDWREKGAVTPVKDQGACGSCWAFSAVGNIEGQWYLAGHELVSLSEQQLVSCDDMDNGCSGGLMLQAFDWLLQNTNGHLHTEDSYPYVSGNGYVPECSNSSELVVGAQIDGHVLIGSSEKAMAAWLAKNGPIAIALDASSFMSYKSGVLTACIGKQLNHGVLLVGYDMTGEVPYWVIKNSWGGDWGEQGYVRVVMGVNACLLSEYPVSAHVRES

On to `COc1ccc(/C=C/C(=O)c2cc(Cl)ccc2O)cc1` [Compound 3a, (E)-1-(5-chloro-2-hydroxyphenyl)-3-(4-methoxyphenyl)prop-2-en-1-one], for which the “NIH/3T3 Cells GL50” value in the data set on NIH/3T3 fibroblasts is given as more than 865.86 µM. The “Cytotoxicity against mammal cells (in words)” value in the data set with NIH/3T3 fibroblasts (NIH/3T3 cells) is “noncytotoxic”. The IC50 amounted to 7110 ± 320 nM against rCPB2.8 [1] and 600 nM in data set [2]. For the same compound, in data set [2], the “SI (selectivity index)” value is listed as more than 1443.10.
Consider `COc1ccc(-c2oc3ccc(Cl)cc3c(=O)c2O)cc1` [f13a, 6-chloro-3-hydroxy-2-(4-methoxyphenyl)-4H-chromen-4-one], for which, in the data set with NIH/3T3 fibroblasts, the “NIH/3T3 Cells GL50” value is listed as more than 825.87 µM. The IC50 came out at 1880 ± 70 nM against rCPB2.8 [1] and 1080 nM in data set [2]. Further, in data set [2], the “SI (selectivity index)” value was more than 764.70.
As for `O=C(/C=C/c1ccc2c(c1)OCO2)c1cc(Cl)ccc1O` [Compound 3b, (E)-3-(benzo[d][1, 3]dioxol-5-yl)-1-(5-chloro-2-hydroxyphenyl)prop-2-en-1-one], the “NIH/3T3 Cells GL50” value in the data set on NIH/3T3 fibroblasts was determined as 59.13 µM. Further, the IC50 against rCPB2.8 [1] was 18400 ± 1220 nM. Also, in data set [2], the “SI (selectivity index)” value turned out to be 61.59 and the IC50 was 960 nM.
In the case of `C[C@@H]1[C@H](O)[C@@H](C)/C=C/C=C/C=C/C=C/C=C/C=C/C=C/[C@H](O[C@@H]2O[C@H](C)[C@@H](O)[C@H](N)[C@@H]2O)C[C@@H]2O[C@](O)(C[C@@H](O)C[C@@H](O)[C@H](O)CC[C@@H](O)C[C@@H](O)CC(=O)O[C@H]1C)C[C@H](O)[C@H]2C(=O)O` [Amphotericin B, reference compound], the IC50 in data set [2] was determined as 100 nM.
Regarding `CN(C)c1ccc(-c2oc3ccc(Cl)cc3c(=O)c2O)cc1` [f13c, 6-chloro-2-(4-(dimethylamino)phenyl)-3-hydroxy-4H-chromen-4-one], the “NIH/3T3 Cells GL50” value with NIH/3T3 fibroblasts is reported as more than 791.76 µM. Besides, the IC50 at rCPB2.8 [1] was 14200 ± 650 nM; in data set [2], more than 10 µg/mL.
Taken in the same sequence, the figures for `O=C(/C=C/c1ccc2c(c1)OCO2)c1ccc(Cl)cc1` [Compound 1b, (E)-3-(benzo[d][1, 3]dioxol-5-yl)-1-(4-chlorophenyl)prop-2-en-1-one] were 811.27 µM, 7420 ± 250 nM and more than 10 µg/mL.
As for `COc1ccc(/C=C/C(=O)c2ccccc2O)cc1` [Compound 2a, (E)-1-(2-hydroxyphenyl)-3-(4-methoxyphenyl)prop-2-en-1-one], in the data set with NIH/3T3 fibroblasts, the “NIH/3T3 Cells GL50” value is given as 940.14 µM. In addition, the 50% inhibitory concentration (IC50) against rCPB2.8 [1] was found to be 2350 ± 190 nM; in data set [2], 710 nM. Besides, the “SI (selectivity index)” value in data set [2] is listed as 1324.
Take `COc1cccc2c1C(=O)c1c(O)c3c(c(O)c1C2=O)C[C@@](O)(C(=O)CO)C[C@@H]3O[C@H]1C[C@H](N)[C@H](O)[C@H](C)O1` [Doxorubicin, reference compound]: in the data set on NIH/3T3 fibroblasts, the “NIH/3T3 Cells GL50” value turned out to be 0.05 µM.
`CN(C)c1ccc(/C=C/C(=O)c2cc(Cl)ccc2O)cc1` [Compound 3c, (E)-1-(5-chloro-2-hydroxyphenyl)-3-(4-(dimethylamino)phenyl)prop-2-en-1-one]: the entries for the “Formation of IEI favoured by binding of the first molecule” value at rCPB2.8 [3], at rCPB3 and at rH84Y were 182 fold, “sevenfold” and 20 fold, respectively. Also, the “Formation of IESI favoured by binding of the first molecule” value on rCPB2.8 [3] turned out to be 87 fold; on rCPB3, 20 fold; at rH84Y it was 28 fold. Also, the Mechanism entry at rCPB2.8 [3], on rCPB3 and on rH84Y was “NCPC” in each case. The αKi is 147 ± 28 µM on rCPB2.8 [3], 141 ± 27 µM on rCPB3 and 127 ± 20 µM on rH84Y. The Ki worked out at 100000 ± 18000 nM at rCPB2.8 [3] (Ki), 550 ± 100 nM on rCPB2.8 [3] (βKi) and 1150 ± 210 nM on rCPB2.8 [3] (γKi). For the same compound, the figures for the α at rCPB2.8 [3] (setting [4]), at rCPB3 (setting [4]) and at rH84Y (setting [4]) were 1.47, 9.15 and 4.31, respectively. The β was determined as 0.0055 at rCPB2.8 [3] (setting [5]), 0.14 at rCPB3 (setting [5]) and 0.049 on rH84Y (setting [5]). The figures for the γ on rCPB2.8 [3] (setting [6]), on rCPB3 (setting [6]) and on rH84Y (setting [6]) were 0.0115, 0.05 and 0.036, respectively. Moreover, the “NIH/3T3 Cells GL50” value in the data set on NIH/3T3 fibroblasts is given as more than 828.44 µM. In addition, the IC50 against rCPB2.8 [1] was 3970 ± 80 nM; in data set [2], more than 10 µg/mL.
As for `O=C(/C=C/c1ccc2c(c1)OCO2)c1cc(F)ccc1O` [Compound 4b, (E)-3-(benzo[d][1, 3]dioxol-5-yl)-1-(5-fluoro-2-hydroxyphenyl)prop-2-en-1-one], in the data set with NIH/3T3 fibroblasts, the “NIH/3T3 Cells GL50” value was more than 873.36 µM. The IC50 came out at 6610 ± 410 nM on rCPB2.8 [1] and 1950 nM in data set [2].
As for `N=C(N)c1ccc(OCCCCCOc2ccc(C(=N)N)cc2)cc1` [Pentamidine, reference compound], the IC50 in data set [2] is 800 nM.
As for `COc1ccc(/C=C/C(=O)c2cc(F)ccc2O)cc1` [Compound 4a, (E)-1-(5-fluoro-2-hydroxyphenyl)-3-(4-methoxyphenyl)prop-2-en-1-one], in the data set on NIH/3T3 fibroblasts, the “NIH/3T3 Cells GL50” value is recorded as 901.09 µM. The IC50 was 3350 ± 170 nM on rCPB2.8 [1] and more than 10 µg/mL in data set [2].
On to `O=C(/C=C/c1ccc2c(c1)OCO2)c1ccccc1O` [Compound 2b, (E)-3-(benzo[d][1, 3]dioxol-5-yl)-1-(2-hydroxyphenyl)prop-2-en-1-one], for which the “NIH/3T3 Cells GL50” value with NIH/3T3 fibroblasts worked out at 910.58 µM. For the same compound, the IC50 at rCPB2.8 [1] is 20600 ± 1060 nM; in data set [2] it was more than 10 µg/mL. Also, on rCPB2.8 [1] (ratio of IC50 values), the “Times less efficient in inhibiting rCPB2.8 than compound 2a” value was 8.78 times.
With `CN(C)c1ccc(-c2oc3ccccc3c(=O)c2O)cc1` [f12c, 2-(4-(dimethylamino)phenyl)-3-hydroxy-4H-chromen-4-one], the “NIH/3T3 Cells GL50” value in the data set on NIH/3T3 fibroblasts is 759.13 µM. This compound also returned an IC50 against rCPB2.8 [1] of 10300 ± 390 nM. Also, in data set [2], the “SI (selectivity index)” value is listed as 1039.90 and the IC50 was 730 nM.
